According to ChEMBL document CHEMBL5579829, “Discovery of a potent CDKs/FLT3 PROTAC with enhanced differentiation and proliferation inhibition for AML” (Eur J Med Chem, 2024):
Calls of active or inactive are those of the source. The rule behind the calls is not given here.

How the values were obtained:
[1] = biological target: T1, Protein cereblon/Cyclin-dependent kinase 2 (Homo sapiens, UniProt P24941+Q96SW2); experiment: Protac activity at CRBN/CDK2 in human HL-60 cells assessed as induction of CDK2 degradation by Western blot analysis; type: cell-based
[2] = biological target: T2, Protein cereblon/Cyclin-dependent kinase 1 (Homo sapiens) (UniProt P06493+Q96SW2); experiment: Protac activity at CRBN/CDK1 in human MV4-11 cells assessed as induction of CDK1 degradation at 2 to 32 nM measured after 3 days by Western blot analysis; type: cell-based; settings: dose 2-32 nM, time 3.0 day
T2 sequence (P06493 whole entry, looked up): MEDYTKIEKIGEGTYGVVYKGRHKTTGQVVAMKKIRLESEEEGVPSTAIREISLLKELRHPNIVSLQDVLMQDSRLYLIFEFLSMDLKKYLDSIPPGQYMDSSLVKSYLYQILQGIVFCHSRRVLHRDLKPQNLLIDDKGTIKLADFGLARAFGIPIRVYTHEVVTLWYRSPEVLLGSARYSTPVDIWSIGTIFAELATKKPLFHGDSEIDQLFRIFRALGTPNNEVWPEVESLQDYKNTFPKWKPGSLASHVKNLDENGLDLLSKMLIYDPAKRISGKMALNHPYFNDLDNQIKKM
T2 sequence (Q96SW2 whole entry, looked up): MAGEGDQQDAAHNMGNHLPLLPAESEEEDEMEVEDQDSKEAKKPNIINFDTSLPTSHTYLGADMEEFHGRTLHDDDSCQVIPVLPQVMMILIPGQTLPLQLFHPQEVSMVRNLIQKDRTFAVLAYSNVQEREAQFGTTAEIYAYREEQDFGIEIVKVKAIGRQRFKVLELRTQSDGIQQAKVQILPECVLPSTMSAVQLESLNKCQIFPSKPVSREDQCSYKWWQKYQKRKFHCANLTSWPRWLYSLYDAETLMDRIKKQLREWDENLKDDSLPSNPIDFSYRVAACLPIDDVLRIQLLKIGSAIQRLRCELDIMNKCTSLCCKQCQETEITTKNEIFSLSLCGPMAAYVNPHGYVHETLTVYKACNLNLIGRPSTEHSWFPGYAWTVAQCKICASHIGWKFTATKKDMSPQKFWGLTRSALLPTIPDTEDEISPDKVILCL

[3] = biological target: T1, Protein cereblon/Cyclin-dependent kinase 2; experiment: Protac activity at CRBN/CDK2 in human THP-1 cells assessed as induction of CDK2 degradation at 4 to 64 nM measured after 3 days by Western blot analysis; type: cell-based; settings: dose 4-64 nM, time 3.0 day
[4] = biological target: T3, Protein cereblon/Cyclin-dependent kinase 5 (Homo sapiens) (UniProt Q00535+Q96SW2); experiment: Protac activity at CRBN/CDK5 in human THP-1 cells assessed as induction of CDK5 degradation at 4 to 64 nM measured after 3 days by Western blot analysis; type: cell-based; settings: dose 4-64 nM, time 3.0 day
T3 sequence (Q00535 whole entry, looked up): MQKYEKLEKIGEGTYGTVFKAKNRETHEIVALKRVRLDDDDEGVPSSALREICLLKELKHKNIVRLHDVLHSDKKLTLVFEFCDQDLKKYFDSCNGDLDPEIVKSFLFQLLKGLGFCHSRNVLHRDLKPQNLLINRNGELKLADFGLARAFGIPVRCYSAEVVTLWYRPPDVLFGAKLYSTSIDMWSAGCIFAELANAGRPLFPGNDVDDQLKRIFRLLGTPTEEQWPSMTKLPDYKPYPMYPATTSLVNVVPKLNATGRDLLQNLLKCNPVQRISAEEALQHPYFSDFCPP
T3 sequence (Q96SW2 whole entry, looked up): as the sequence (Q96SW2 whole entry, looked up) above

[5] = biological target: T1, Protein cereblon/Cyclin-dependent kinase 2; experiment: Protac activity at CRBN/CDK2 in human HL-60 cells assessed as induction of CDK2 degradation at 10 nM measured after 24 hrs in presence of proteasome inhibitor MG132 by Western blot analysis; type: cell-based
HL-60 [6] = experiment: Induction of pro-differentiation of human HL-60 cells assessed as increase in CD11b expression at 6.25 nM measured after 3 days by immunostaining-based flow cytometry relative to control; type: functional; settings: time 3 day
HL-60 [7] = experiment: Induction of pro-differentiation of human HL-60 cells assessed as CD11b expression at 4 nM measured after 5 days by immunostaining-based flow cytometry (reference value: 10.08 to 10.33%); type: functional; settings: time 5 day
[8] = biological target: T4, Protein cereblon/Cyclin-dependent kinase 6 (Homo sapiens, UniProt Q00534+Q96SW2); experiment: Protac activity at CRBN/CDK6 in human Kasumi 1 cells assessed as induction of CDK6 degradation at 2 to 32 nM measured after 3 days by Western blot analysis; type: cell-based; settings: dose 2-32 nM, time 3.0 day
T4 sequence (Q00534 whole entry, looked up): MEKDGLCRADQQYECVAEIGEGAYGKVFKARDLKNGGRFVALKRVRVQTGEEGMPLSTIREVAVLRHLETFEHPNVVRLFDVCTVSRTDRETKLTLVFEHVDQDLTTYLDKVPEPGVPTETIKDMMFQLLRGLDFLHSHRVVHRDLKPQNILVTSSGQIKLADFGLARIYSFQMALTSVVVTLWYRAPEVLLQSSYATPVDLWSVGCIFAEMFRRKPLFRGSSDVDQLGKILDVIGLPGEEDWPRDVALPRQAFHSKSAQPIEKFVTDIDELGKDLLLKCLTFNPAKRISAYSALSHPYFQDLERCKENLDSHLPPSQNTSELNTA
T4 sequence (Q96SW2 whole entry, looked up): as the sequence (Q96SW2 whole entry, looked up) above

[9] = biological target: T3, Protein cereblon/Cyclin-dependent kinase 5 (Homo sapiens); experiment: Protac activity at CRBN/CDK5 in human Kasumi 1 cells assessed as induction of CDK5 degradation at 2 to 32 nM measured after 3 days by Western blot analysis; type: cell-based; settings: dose 2-32 nM, time 3.0 day
[10] = biological target: T5, Protein cereblon/Cyclin-dependent kinase 9 (Homo sapiens, UniProt P50750+Q96SW2); experiment: Protac activity at CRBN/CDK9 in human Kasumi 1 cells assessed as induction of CDK9 degradation at 2 to 32 nM measured after 3 days by Western blot analysis; type: cell-based; settings: dose 2-32 nM, time 3.0 day
Target sequence in this assay (P50750 whole entry, looked up): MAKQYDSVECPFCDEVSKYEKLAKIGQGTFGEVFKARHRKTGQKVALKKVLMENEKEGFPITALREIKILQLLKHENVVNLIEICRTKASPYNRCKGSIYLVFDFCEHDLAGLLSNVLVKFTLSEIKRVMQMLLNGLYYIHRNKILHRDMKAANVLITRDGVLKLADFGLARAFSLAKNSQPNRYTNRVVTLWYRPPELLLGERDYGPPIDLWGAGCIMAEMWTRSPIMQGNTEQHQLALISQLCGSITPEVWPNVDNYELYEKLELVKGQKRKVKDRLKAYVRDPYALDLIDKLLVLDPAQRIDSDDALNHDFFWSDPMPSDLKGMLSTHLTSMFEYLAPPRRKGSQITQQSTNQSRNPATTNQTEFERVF
Target sequence in this assay (Q96SW2 whole entry, looked up): as the sequence (Q96SW2 whole entry, looked up) above

[11] = biological target: T1, Protein cereblon/Cyclin-dependent kinase 2; experiment: Protac activity at CRBN/CDK2 in human HL-60 cells assessed as induction of CDK2 degradation measured after 24 hrs by Western blot analysis; type: cell-based
[12] = biological target: T5, Protein cereblon/Cyclin-dependent kinase 9; experiment: Protac activity at CRBN/CDK9 in human HL-60 cells assessed as induction of CDK9 degradation measured after 3 days by Western blot analysis; type: cell-based
Target sequence in this assay (P50750 whole entry): as the sequence (P50750 whole entry, looked up) above
Target sequence in this assay (Q96SW2 whole entry): as the sequence (Q96SW2 whole entry, looked up) above

[13] = biological target: T2, Protein cereblon/Cyclin-dependent kinase 1 (Homo sapiens); experiment: Protac activity at CRBN/CDK1 in human HL-60 cells assessed as induction of CDK1 degradation at 4 to 64 nM measured after 3 days by Western blot analysis; type: cell-based; settings: dose 4-64 nM, time 3.0 day
[14] = biological target: T1, Protein cereblon/Cyclin-dependent kinase 2; experiment: Protac activity at CRBN/CDK2 in human HL-60 cells assessed as induction of CDK2 degradation by Western blot analysis relative to control; type: cell-based
[15] = biological target: T6, Protein cereblon/Cyclin-dependent kinase 4 (Homo sapiens, UniProt P11802+Q96SW2); experiment: Protac activity at CRBN/CDK4 in human MV4-11 cells assessed as induction of CDK4 degradation at 2 to 32 nM measured after 3 days by Western blot analysis; type: cell-based; settings: dose 2-32 nM, time 3.0 day
T6 sequence (P11802 2-303 limits assumed): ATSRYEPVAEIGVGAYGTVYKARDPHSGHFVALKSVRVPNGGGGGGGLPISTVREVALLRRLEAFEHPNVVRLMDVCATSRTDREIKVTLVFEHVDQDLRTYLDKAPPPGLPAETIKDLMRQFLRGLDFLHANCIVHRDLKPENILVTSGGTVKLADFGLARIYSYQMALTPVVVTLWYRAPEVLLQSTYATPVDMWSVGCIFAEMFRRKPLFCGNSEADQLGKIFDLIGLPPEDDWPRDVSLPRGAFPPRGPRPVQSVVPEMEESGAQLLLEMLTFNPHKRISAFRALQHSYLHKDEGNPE
T6 sequence (Q96SW2 whole entry partner): as the sequence (Q96SW2 whole entry, looked up) above

[16] = biological target: T3, Protein cereblon/Cyclin-dependent kinase 5 (Homo sapiens); experiment: Protac activity at CRBN/CDK5 in human HL-60 cells assessed as induction of CDK5 degradation at 4 to 64 nM measured after 3 days by Western blot analysis; type: cell-based; settings: dose 4-64 nM, time 3.0 day
HL-60 [17] = experiment: Induction of pro-differentiation of human HL-60 cells assessed as CD11b expression at 2 nM measured after 3 days by immunostaining-based flow cytometry (reference value: 8.32 to 10.55%); type: functional; settings: time 3 day
[18] = biological target: T2, Protein cereblon/Cyclin-dependent kinase 1 (Homo sapiens); experiment: Protac activity at CRBN/CDK1 in human Kasumi 1 cells assessed as induction of CDK1 degradation at 2 to 32 nM measured after 3 days by Western blot analysis; type: cell-based; settings: dose 2-32 nM, time 3.0 day
[19] = biological target: T4, Protein cereblon/Cyclin-dependent kinase 6; experiment: Protac activity at CRBN/CDK6 in human THP-1 cells assessed as induction of CDK6 degradation at 4 to 64 nM measured after 3 days by Western blot analysis; type: cell-based; settings: dose 4-64 nM, time 3.0 day
[20] = biological target: T6, Protein cereblon/Cyclin-dependent kinase 4; experiment: Protac activity at CRBN/CDK4 in human Kasumi 1 cells assessed as induction of CDK4 degradation at 2 to 32 nM measured after 3 days by Western blot analysis; type: cell-based; settings: dose 2-32 nM, time 3.0 day
HL-60 [21] = experiment: Induction of pro-differentiation of human HL-60 cells assessed as increase in CD11b expression measured after 3 to 5 days by immunostaining-based flow cytometry; type: functional, cell-based; settings: dose 1-6.25 nM, time 3-5 day
[22] = biological target: T1, Protein cereblon/Cyclin-dependent kinase 2; experiment: Protac activity at CRBN/CDK2 in human MV4-11 cells assessed as induction of CDK2 degradation at 2 to 32 nM measured after 3 days by Western blot analysis; type: cell-based; settings: dose 2-32 nM, time 3.0 day
[23] = biological target: T1, Protein cereblon/Cyclin-dependent kinase 2; experiment: Protac activity at CRBN/CDK2 in human Kasumi 1 cells assessed as induction of CDK2 degradation at 2 to 32 nM measured after 3 days by Western blot analysis; type: cell-based; settings: dose 2-32 nM, time 3.0 day
[24] = system: Protein cereblon/Receptor-type tyrosine-protein kinase FLT3 (Homo sapiens), P36888+Q96SW2 [UNDEFINED MUTATION]; experiment: Protac activity at CRBN/FLT3-ITD mutant in human MV4-11 cells assessed as induction of FLT3 degradation at 2 nM measured after 3 days by Western blot analysis relative to control; type: cell-based; settings: time 3.0 day
Chain of Protein cereblon/Receptor-type tyrosine-protein kinase FLT3 (Homo sapiens), P36888+Q96SW2 [UNDEFINED MUTATION] (P36888 whole entry, looked up, stated change not applied): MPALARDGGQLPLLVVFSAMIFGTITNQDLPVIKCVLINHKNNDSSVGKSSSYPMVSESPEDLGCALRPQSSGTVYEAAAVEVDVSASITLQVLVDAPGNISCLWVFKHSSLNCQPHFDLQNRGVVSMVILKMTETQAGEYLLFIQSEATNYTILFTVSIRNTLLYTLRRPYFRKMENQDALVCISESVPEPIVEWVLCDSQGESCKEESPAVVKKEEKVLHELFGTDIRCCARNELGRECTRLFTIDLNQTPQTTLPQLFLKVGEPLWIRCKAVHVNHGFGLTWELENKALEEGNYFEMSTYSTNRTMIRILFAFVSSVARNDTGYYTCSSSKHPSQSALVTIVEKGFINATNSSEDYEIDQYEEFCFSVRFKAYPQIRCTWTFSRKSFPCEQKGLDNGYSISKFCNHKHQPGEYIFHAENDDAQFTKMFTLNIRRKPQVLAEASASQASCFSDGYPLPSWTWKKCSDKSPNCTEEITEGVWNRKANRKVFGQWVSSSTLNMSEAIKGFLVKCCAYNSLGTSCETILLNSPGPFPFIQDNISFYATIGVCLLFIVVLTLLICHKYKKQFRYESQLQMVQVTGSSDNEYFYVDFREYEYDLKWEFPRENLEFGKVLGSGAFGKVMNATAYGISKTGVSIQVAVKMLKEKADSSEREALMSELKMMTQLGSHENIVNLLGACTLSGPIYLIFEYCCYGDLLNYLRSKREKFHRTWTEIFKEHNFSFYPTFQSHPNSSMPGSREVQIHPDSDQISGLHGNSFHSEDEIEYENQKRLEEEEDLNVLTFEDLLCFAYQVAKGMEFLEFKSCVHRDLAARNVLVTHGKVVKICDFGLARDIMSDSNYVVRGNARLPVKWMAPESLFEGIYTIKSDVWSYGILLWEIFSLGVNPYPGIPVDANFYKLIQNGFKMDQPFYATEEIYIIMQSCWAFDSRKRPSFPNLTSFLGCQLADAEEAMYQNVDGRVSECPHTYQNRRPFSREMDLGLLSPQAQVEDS
Chain of Protein cereblon/Receptor-type tyrosine-protein kinase FLT3 (Homo sapiens), P36888+Q96SW2 [UNDEFINED MUTATION] (Q96SW2 whole entry, looked up, stated change not applied): as the sequence (Q96SW2 whole entry, looked up) above

OCI-AML2 = experiment: Antiproliferative activity against human OCI-AML2 cells measured after 1 to 3 days by CCK-8 assay; type: functional, cell-based
[25] = biological target: T6, Protein cereblon/Cyclin-dependent kinase 4; experiment: Protac activity at CRBN/CDK4 in human THP-1 cells assessed as induction of CDK4 degradation at 4 to 64 nM measured after 3 days by Western blot analysis; type: cell-based; settings: dose 4-64 nM, time 3.0 day
[26] = biological target: T1, Protein cereblon/Cyclin-dependent kinase 2; experiment: Protac activity at CRBN/CDK2 in human HL-60 cells assessed as induction of CDK2 degradation at 10 nM measured after 24 hrs in presence of NEDD8-activated E1 enzyme inhibitor MLN4924 by Western blot analysis; type: cell-based
Kasumi 1 = experiment: Antiproliferative activity against human Kasumi 1 cells measured after 1 to 3 days by CCK-8 assay; type: functional, cell-based
MOLM-13 = experiment: Antiproliferative activity against human MOLM-13 cells measured after 1 to 3 days by CCK-8 assay; type: functional, cell-based
NB-4 = experiment: Antiproliferative activity against human NB4 cells measured after 1 to 3 days by CCK-8 assay; type: functional, cell-based
HL-60 [27] = experiment: Induction of pro-differentiation of human HL-60 cells assessed as increase in CD11b expression at 6.25 nM measured after 3 days by immunostaining-based flow cytometry relative to 500 nM CPS2; type: functional; settings: time 3 day
HL-60 [28] = experiment: Antiproliferative activity against human HL-60 cells measured after 1 to 3 days by CCK-8 assay; type: functional, cell-based
[29] = biological target: T5, Protein cereblon/Cyclin-dependent kinase 9; experiment: Protac activity at CRBN/CDK9 in human MV4-11 cells assessed as induction of CDK9 degradation at 2 to 32 nM measured after 3 days by Western blot analysis; type: cell-based; settings: dose 2-32 nM, time 3.0 day
Target sequence in this assay (P50750 whole entry, looked up): as the sequence (P50750 whole entry, looked up) above
Target sequence in this assay (Q96SW2 whole entry, looked up): as the sequence (Q96SW2 whole entry, looked up) above

For `O=C1CCC(N2C(=O)c3ccc(N4CCC(CN5CCN(Cc6ccc(NC(=O)c7n[nH]cc7Nc7ncnc8[nH]ccc78)cc6)CC5)CC4)cc3C2=O)C(=O)N1` (stereo not drawn), the DC50 [1] was 12.7 nM, the Activity [2] was “inactive” and the Activity [3] was “Active”. The Activity [4] was “inactive”, the Activity [5] was “inactive” and the “fold change (FC)” value (HL-60 [6]) was 5.7. The Activity (HL-60 [7]) was 58.59%, the Activity [8] was “Active” and the Activity [9] was “inactive”. The Activity [10] was “Active”, the DC50 [11] was 18.7 nM and the DC50 [12] was 4.34 nM. For the same compound, the Activity [13] was “inactive”, the Emax [14] was 81.9% and the Activity [15] was “Active”. For the same compound, the Activity [16] was “inactive”, the Activity (HL-60 [17]) was 29.09% and the Activity [18] was “inactive”. For the same compound, the Activity [19] was “Active”, the Activity [20] was “Active” and the Activity (HL-60 [21]) was “Dose-Dependent Effect”. For the same compound, the Activity [22] was “Active”, the Activity [23] was “Active” and the Activity [24] was 77%. The IC50 (OCI-AML2) was 17.9 nM, the Activity [25] was “Active” and the Activity [26] was “inactive”. For the same compound, the IC50 (Kasumi 1) was 3.99 nM, the IC50 (MOLM-13) was 4.52 nM and the IC50 (NB-4) was 4.94 nM. For the same compound, the “fold change (FC)” value (HL-60 [27]) was 2.2, the IC50 (HL-60 [28]) was 10.5 nM and the Activity [29] was “Active”.
